Measurements taken from PMC7468206, “Molecular Deceleration Regulates Toxicant Release to Prevent Cell Damage in Pseudomonas putida S16 (DSM 28022)” (mBio, 2020).

Target: T1, full-length (FL) wild-type (WT) NicA2 (Pseudomonas putida, UniProt F8G0P2)
T1 construct: full length, C-terminal 6xHis (pET28a), E. coli BL21(DE3); FAD-containing; the assays say only WT NicA2, full length inferred from cloning section
T1 sequence (F8G0P2 1-482): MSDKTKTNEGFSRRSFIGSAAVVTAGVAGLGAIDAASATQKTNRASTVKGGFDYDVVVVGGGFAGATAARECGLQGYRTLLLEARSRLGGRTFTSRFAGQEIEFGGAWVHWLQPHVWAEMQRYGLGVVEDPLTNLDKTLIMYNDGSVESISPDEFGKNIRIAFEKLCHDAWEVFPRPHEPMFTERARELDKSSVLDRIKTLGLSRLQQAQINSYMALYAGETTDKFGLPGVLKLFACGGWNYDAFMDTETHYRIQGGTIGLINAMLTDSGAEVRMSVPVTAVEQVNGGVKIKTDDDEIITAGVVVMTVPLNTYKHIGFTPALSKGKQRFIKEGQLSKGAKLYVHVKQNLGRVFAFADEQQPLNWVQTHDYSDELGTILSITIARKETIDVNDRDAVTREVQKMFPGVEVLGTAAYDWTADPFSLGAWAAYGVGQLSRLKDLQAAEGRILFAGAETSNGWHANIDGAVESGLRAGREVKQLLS
Test: Ni-NTA removal of enzyme, GC of free versus total product
Format: binding
Details: 25 °C, 1.5 h, equimolar nicotine; product formed in situ; construct (full length or 21-482) not stated

CNCCCC(=O)c1cccnc1 [pseudooxynicotine]
Ni-NTA removal of enzyme, GC of free versus total product: only one-fourth of the PN produced in the reaction system was released to solution by NicA2
